The values below come from patent US8226963B2, “Feed-through lignin-pesticide compositions” (Wellmark International, priority 2005, dated 2012).

Holding throughout (assay type): in vivo
Data set [1] can be described thus: Barium (BaSO4) passing into the manure of chickens. The following applies: for Amount of Barium, % found in manure: 0.093% in feed. From the text:
This example illustrates a determination of the maximum concentration of any active agent that will pass into the manure of chickens.
Briefly, chicken feed was formulated using a pulverized cattle bolus which contained barium in the form of BaSO4.

A short description of data set [2]: Methoprene found in manure of cats fed treated cat food. As to conditions: for Calculated Methoprene (ppm) in manure: cats Q, S, T. On the procedure: This example illustrates a study in cats comparing an inventive formulation containing lignin-methoprene complexes with a formulation containing free methoprene.
Three cats were fed the formulations for a week and their manure was tested every 24 hours.

The nature of data set [3]: Enteric Matrix/Coating of Methoprene Feed Through Study in chickens. As to conditions: Feed Rate 23.8 ppm. From the text: This example illustrates a study of methoprene versus enteric coated methoprene. The results below indicate that there is no difference in % recovery between technical grade methoprene and enteric coated methoprene or matrix treated methoprene.
Data set [4] can be described thus: Methoprene found in manure of horses fed treated feed as top dressing. The following applies: Average of Day 0-Day 10. On the procedure: This example illustrates a study in horses comparing an inventive formulation containing a lignin-methoprene complex with a formulation containing free methoprene.
Four horses were fed the formulations for eleven days and their manure was tested every 24 hours.

Data set [5] in a line: Methoprene found in manure of cows fed treated feed as top dressing. As to conditions: Average of Day 1-Day 10. On the procedure:
This example illustrates a study in cattle comparing an inventive formulation containing a lignin-methoprene complex with a formulation containing free methoprene.
Four cows were fed the formulations for eleven days and their manure was tested every 24 hours.

The mark [6] stands for this setting: horse Bettor Lad, AI fed 8.94 ppm.

Each structure is given as a SMILES string. Several values for one entry are separate records, joined by “and”; a condition that tells them apart may be missing. Identical values can stand only once.

Take `O=S(=O)([O-])[O-].[Ba+2]` [Barium, BaSO4]: the “% of initial BaSO4 found in manure” value came out at 1.78% in data set [1] (4 hr.), 48.90% in data set [1] (24 hr.), 59.90% in data set [1] (48 hr.) and 50.60% in data set [1] (72 hr.). The “Amount of Barium, % found in manure” value in data set [1] (4 hr. after feeding) stood at 0.00165%; in data set [1] (24 hr. after feeding) it was 0.0455%; in data set [1] (48 hr. after feeding), 0.0557%; in data set [1] (72 hr. after feeding), 0.0471%.
In the case of `COC(C)(C)CCCC(C)C/C=C/C(C)=C/C(=O)OC(C)C` (stereo not drawn) [free methoprene, methoprene], the “Day 1 Avg. methoprene in manure” value in data set [2] (cat food @ 36.2 ppm, 24 hr) is recorded as 0.63 ppm. In addition, the “Day 1 Avg. methoprene recovered in manure (%)” value in data set [2] (cat food @ 36.2 ppm, 24 hr) is recorded as “(1.7%)”. For the same compound, the “Day 2 Avg. methoprene in manure” value in data set [2] (cat food @ 36.2 ppm, 48 hr) came to 2.2 ppm. For the same compound, in data set [2] (cat food @ 36.2 ppm, 48 hr), the “Day 2 Avg. methoprene recovered in manure (%)” value was “(6.1%)”. In data set [2] (cat food @ 36.2 ppm, 72 hr), the “Day 3 Avg. methoprene in manure” value stood at 1.8 ppm. Also, in data set [2] (cat food @ 36.2 ppm, 72 hr), the “Day 3 Avg. methoprene recovered in manure (%)” value is recorded as “(5.0%)”. Further, the “Day 4 Avg. methoprene in manure” value in data set [2] (cat food @ 36.2 ppm, 96 hr) is listed as 1.9 ppm. The “Day 4 Avg. methoprene recovered in manure (%)” value in data set [2] (cat food @ 36.2 ppm, 96 hr) is “(5.2%)”. For the same compound, the “Calculated Methoprene (ppm) in manure” value is 0 ppm in data set [2] (cat food @ 36.2 ppm, Day 0 (0 hr)); 0.6 ppm and 0.7 ppm in data set [2] (cat food @ 36.2 ppm, Day 1 (24 hr), listed as Free Methoprene Lot # 491-166); 2.4 ppm and 2.5 ppm and 1.6 ppm in data set [2] (cat food @ 36.2 ppm, Day 2 (48 hr), listed as Free Methoprene Lot # 491-166); 2.0 ppm and 1.5 ppm in data set [2] (cat food @ 36.2 ppm, Day 3 (72 hr), listed as Free Methoprene Lot # 491-166). The “amount of methoprene recovered from the manure of cats” value in data set [2] (range of daily averages Day 1-Day 4) is listed as 1.7-6.1%. In data set [3], the “% Recovery” value worked out at 12.22%. The “Manure Rate ppm (methoprene)” value in data set [3] (feed Egg Buster) is 2.91 ppm. In addition, the “AI manure ppm” value in data set [4] (setting [6]) is listed as 1.29 ppm; in data set [4] (horse Dancer, AI fed 8.61 ppm) it was 1.30 ppm; in data set [5] (cow 10 R/W, AI fed 8.94 ppm) it was 0.16 ppm; in data set [5] (cow 16 Black, AI fed 12.58 ppm), 0.35 ppm. The Percent pass through is on record as 14.4% in data set [4] (setting [6]); 15.1% in data set [4] (horse Dancer, AI fed 8.61 ppm); 1.8% in data set [5] (cow 10 R/W, AI fed 8.94 ppm); 2.8% in data set [5] (cow 16 Black, AI fed 12.58 ppm). For the same compound, the “Avg. % pass through by Group” value in data set [4] (horses, two per group) was determined as 14.75%; in data set [5] (cows, two per group) it was 2.3%.
